Target: PI3Kβ (Homo sapiens (Human), UniProt P42338)
Assay: PI3K isoform TR-FRET enzymatic assay (PI3Kβ)
Type: biochemical
Details: 2× Km ATP, 30 minutes at 25° C.
Method in brief: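 Heterodimeric recombinant PI3Kβ was incubated with compound 30 minutes at 25° C. Product was detected by TR-FRET competition with 10 nM labeled PIP3 for 35 nM Eu-GRP-1 PH domain after EDTA stop. Data were normalized to 1 μM wortmannin and DMSO, and IC50 was taken from a four-parameter fit.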

Sequence of PI3Kβ (P42338 whole entry, canonical isoform): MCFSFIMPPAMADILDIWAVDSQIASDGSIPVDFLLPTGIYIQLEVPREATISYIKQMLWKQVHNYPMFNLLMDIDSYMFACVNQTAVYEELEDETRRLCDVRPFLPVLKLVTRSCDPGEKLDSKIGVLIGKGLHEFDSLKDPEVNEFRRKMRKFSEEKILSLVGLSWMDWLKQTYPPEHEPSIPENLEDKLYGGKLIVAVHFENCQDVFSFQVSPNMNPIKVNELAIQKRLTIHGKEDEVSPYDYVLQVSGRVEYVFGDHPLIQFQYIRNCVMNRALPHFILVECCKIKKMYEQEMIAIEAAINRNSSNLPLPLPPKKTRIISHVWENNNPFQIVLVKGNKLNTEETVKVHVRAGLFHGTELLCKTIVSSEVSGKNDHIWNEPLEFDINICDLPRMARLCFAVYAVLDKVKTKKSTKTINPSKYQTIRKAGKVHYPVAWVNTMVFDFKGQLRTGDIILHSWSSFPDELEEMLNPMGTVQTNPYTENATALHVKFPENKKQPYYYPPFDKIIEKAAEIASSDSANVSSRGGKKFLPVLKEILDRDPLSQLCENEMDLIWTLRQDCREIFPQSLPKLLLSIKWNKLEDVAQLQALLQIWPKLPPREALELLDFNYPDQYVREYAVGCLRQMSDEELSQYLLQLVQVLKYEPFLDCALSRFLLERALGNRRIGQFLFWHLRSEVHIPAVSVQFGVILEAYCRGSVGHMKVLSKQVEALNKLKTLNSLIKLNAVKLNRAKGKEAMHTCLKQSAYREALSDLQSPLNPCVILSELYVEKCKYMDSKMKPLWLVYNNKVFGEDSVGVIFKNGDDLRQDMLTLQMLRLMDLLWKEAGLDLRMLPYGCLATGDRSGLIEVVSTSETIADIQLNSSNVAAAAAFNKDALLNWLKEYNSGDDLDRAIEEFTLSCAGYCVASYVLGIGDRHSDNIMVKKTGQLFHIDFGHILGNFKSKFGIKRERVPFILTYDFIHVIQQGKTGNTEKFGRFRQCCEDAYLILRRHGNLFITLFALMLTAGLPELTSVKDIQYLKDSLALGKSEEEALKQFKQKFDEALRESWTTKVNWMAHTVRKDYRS
Sequence of PI3Kβ (P27986 whole entry partner, canonical isoform): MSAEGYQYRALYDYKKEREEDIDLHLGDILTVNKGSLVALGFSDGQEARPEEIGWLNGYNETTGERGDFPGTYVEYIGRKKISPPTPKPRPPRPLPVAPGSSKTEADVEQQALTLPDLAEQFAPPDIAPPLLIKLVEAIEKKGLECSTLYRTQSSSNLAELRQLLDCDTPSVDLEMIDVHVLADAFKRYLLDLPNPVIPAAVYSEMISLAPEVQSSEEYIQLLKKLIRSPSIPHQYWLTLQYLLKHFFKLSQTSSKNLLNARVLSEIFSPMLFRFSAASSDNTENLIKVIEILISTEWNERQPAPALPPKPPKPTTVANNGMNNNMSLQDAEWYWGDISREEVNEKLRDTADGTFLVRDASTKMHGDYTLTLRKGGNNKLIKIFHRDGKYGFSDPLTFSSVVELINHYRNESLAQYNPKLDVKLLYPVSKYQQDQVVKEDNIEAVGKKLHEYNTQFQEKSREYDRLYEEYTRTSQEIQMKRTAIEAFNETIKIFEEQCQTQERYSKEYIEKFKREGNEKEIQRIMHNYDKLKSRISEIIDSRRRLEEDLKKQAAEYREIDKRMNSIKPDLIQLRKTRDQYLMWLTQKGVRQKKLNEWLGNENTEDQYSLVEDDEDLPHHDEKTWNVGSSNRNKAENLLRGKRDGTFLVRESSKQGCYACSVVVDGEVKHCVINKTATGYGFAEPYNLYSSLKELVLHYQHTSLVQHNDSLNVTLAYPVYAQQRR

Cc1nnc(-c2cc(N3CCOCC3)cc3c2ncn3-c2ccnc3cc(F)ccc23)[nH]1 [Example 22, 4-(1-(7-fluoroquinolin-4-yl)-4-(5-methyl-4H-1,2,4-triazol-3-yl)-1H-benzo[d]imidazol-6-yl)morpholine] gave an IC50 of 280 nM.

In the case of Clc1ncc(-c2cc(N3CCOCC3)cc3c2ncn3-c2ccnc3c(Cl)cccc23)[nH]1 [Example 285, 4-[7-(2-chloro-1H-imidazol-5-yl)-3-(8-chloroquinolin-4-yl)benzimidazol-5-yl]morpholine], the IC50 is reported as 4 nM.

For Clc1cccc2c(-n3c(C4CCC4)nc4c(-c5nnc[nH]5)cc(N5CCOCC5)cc43)ccnc12 [Example 30, 4-(1-(8-chloroquinolin-4-yl)-2-cyclobutyl-4-(4H-1,2,4-triazol-3-yl)-1H-benzo[d]imidazol-6-yl)morpholine], the IC50 was 8 nM.

Clc1cccc2c(-n3c(C4CCCO4)nc4c(-c5nnc[nH]5)cc(N5CCOCC5)cc43)ccnc12 (stereo not shown) [Example 102, 4-[3-(8-chloroquinolin-4-yl)-2-(oxolan-2-yl)-7-(4H-1,2,4-triazol-3-yl)benzimidazol-5-yl]morpholine] gave an IC50 of 21 nM.

Work on Cc1nc2c(-c3ccncc3)cc(N3CCOCC3)cc2n1-c1ccnc2c(Cl)cccc12 [Example 319, 4-[3-(8-chloroquinolin-4-yl)-2-methyl-7-pyridin-4-ylbenzimidazol-5-yl]morpholine] yielded an IC50 of 8600 nM.

CCc1c(C)nc2ccccc2c1-n1cnc2c(-c3nc(C)n[nH]3)cc(N3CCOCC3)cc21 [Example 75, 4-[3-(3-ethyl-2-methylquinolin-4-yl)-7-(3-methyl-1H-1,2,4-triazol-5-yl)benzimidazol-5-yl]morpholine] gave an IC50 of 29 nM.

Cc1nnc(-c2cc(N3CCOCC3)cc3c2nc(CC2CC2)n3-c2ccnc3c(Cl)cccc23)[nH]1 [Example 8, 4-(1-(8-chloroquinolin-4-yl)-2-(cyclopropylmethyl)-4-(5-methyl-4H-1,2,4-triazol-3-yl)-1H-benzo[d]imidazol-6-yl)morpholine] showed an IC50 of 32 nM.

Work on c1ccc2c(-n3cnc4c(-c5nnc[nH]5)cc(N5CCOCC5)cc43)cc(-c3cc[nH]n3)nc2c1 [Example 383, 4-(1-(2-(1H-pyrazol-3-yl)quinolin-4-yl)-4-(4H-1,2,4-triazol-3-yl)-1H-benzo[d]imidazol-6-yl)morpholine] yielded an IC50 of 11 nM.

For Cc1nnc(-c2cc(N3CCOCC3)cc3c2nc(C)n3-c2cc(N3CCNCC3)nc3ccccc23)[nH]1 [Example 169, 4-(2-methyl-4-(5-methyl-4H-1,2,4-triazol-3-yl)-1-(2-(piperazin-1-yl)quinolin-4-yl)-1H-benzo[d]imidazol-6-yl)morpholine], the IC50 was 16 nM.

Compound Cc1nc2c(-c3cccnc3)cc(N3CCOCC3)cc2n1-c1ccnc2c(Cl)cccc12 [Example 317, 4-[3-(8-chloroquinolin-4-yl)-2-methyl-7-pyridin-3-ylbenzimidazol-5-yl]morpholine] has an IC50 of 690 nM.

For Cc1nc2c(-c3cncnc3)cc(N3CCOCC3)cc2n1-c1ccnc2c(Cl)cccc12 [Example 315, 4-(1-(8-chloroquinolin-4-yl)-2-methyl-4-(pyrimidin-5-yl)-1H-benzo[d]imidazol-6-yl)morpholine], the IC50 was 490 nM.

For Cc1cnc2c(C#N)cccc2c1-n1c(C)nc2c(-c3nnc[nH]3)cc(N3CCOCC3)cc21 [Example 156, 3-methyl-4-(2-methyl-6-morpholino-4-(4H-1,2,4-triazol-3-yl)-1H-benzo[d]imidazol-1-yl)quinoline-8-carbonitrile], the IC50 was 20 nM.

Work on Cc1cc(-n2c(C)nc3c(-c4nnc[nH]4)cc(N4CCOCC4)cc32)c2cccc(Cl)c2n1 [Example 64, 4-[3-(8-chloro-2-methylquinolin-4-yl)-2-methyl-7-(4H-1,2,4-triazol-3-yl)benzimidazol-5-yl]morpholine] yielded an IC50 of 21 nM.

For CCc1nc2c(-c3nnc(Cl)[nH]3)cc(N3CCOCC3)cc2n1-c1ccnc2c(Cl)c(F)ccc12 [Example 172, 4-(4-(5-chloro-4H-1,2,4-triazol-3-yl)-1-(8-chloro-7-fluoroquinolin-4-yl)-2-ethyl-1H-benzo[d]imidazol-6-yl)morpholine], the IC50 was 100 nM.

CCCc1nc2c(-c3ccn[nH]3)cc(N3CCOCC3)cc2n1-c1ccnc2c(F)ccc(F)c12 (atropisomer, axis not shown) [Compound 368, 4-(1-(5,8-difluoroquinolin-4-yl)-2-propyl-4-(1H-pyrazol-5-yl)-1H-benzo[d]imidazol-6-yl)morpholine] was tested, and the IC50 was 18 nM.

For Cc1nc2c(-c3nnc[nH]3)cc(N3CCOCC3)cc2n1-c1ccnc2c(F)ccc(F)c12 [Example 114, 4-[3-(5,8-difluoroquinolin-4-yl)-2-methyl-7-(4H-1,2,4-triazol-3-yl)benzimidazol-5-yl]morpholine], the IC50 was 12 nM.

Work on CCCc1nc2c(-c3ncco3)cc(N3CCOCC3)cc2n1-c1ccnc2c(F)ccc(F)c12 [Example 230, 4-(1-(5,8-difluoroquinolin-4-yl)-4-(oxazol-2-yl)-2-propyl-1H-benzo[d]imidazol-6-yl)morpholine] yielded an IC50 of 7 nM.

Work on Fc1ccc(Cl)c2c(-n3cnc4c(-c5nnc[nH]5)cc(N5CCOCC5)cc43)ccnc12 [Example 96, 4-[3-(5-chloro-8-fluoroquinolin-4-yl)-7-(4H-1,2,4-triazol-3-yl)benzimidazol-5-yl]morpholine] yielded an IC50 of 24 nM.

Cc1csc(-c2cc(N3CCOCC3)cc3c2nc(C)n3-c2ccnc3c(F)ccc(F)c23)n1 [Example 233, 4-[3-(5,8-difluoroquinolin-4-yl)-2-methyl-7-(4-methyl-1,3-thiazol-2-yl)benzimidazol-5-yl]morpholine] was tested, and the IC50 was 8 nM.

Cc1cc(-n2c(C)nc3c(-c4nc(C)n[nH]4)cc(N4CCOCC4)cc32)c2cccc(C(F)(F)F)c2n1 [Example 77, 4-[2-methyl-7-(3-methyl-1H-1,2,4-triazol-5-yl)-3-[2-methyl-8-(trifluoromethyl)quinolin-4-yl]benzimidazol-5-yl]morpholine] showed an IC50 of 97 nM.

Compound CCCc1nc2c(-c3nnc[nH]3)cc(N3CCOCC3)cc2n1-c1ccnc2c(F)cccc12 [Example 141, 4-[3-(8-fluoroquinolin-4-yl)-2-propyl-7-(4H-1,2,4-triazol-3-yl)benzimidazol-5-yl]morpholine] has an IC50 of 10 nM.

With Cc1nc2c(-c3cnc(Cl)[nH]3)cc(N3CCOCC3)cc2n1-c1ccnc2c(F)cccc12 [Example 260, 4-(4-(2-chloro-1H-imidazol-5-yl)-1-(8-fluoroquinolin-4-yl)-2-methyl-1H-benzo[d]imidazol-6-yl)morpholine] the IC50 was 22 nM.

With Cc1cccc2c(-n3c(C)nc4c(-c5nnc[nH]5)cc(N5CCOCC5)cc43)ccnc12 [Example 109, 4-[2-methyl-3-(8-methylquinolin-4-yl)-7-(4H-1,2,4-triazol-3-yl)benzimidazol-5-yl]morpholine] the IC50 was 13 nM.

Compound Fc1cccc2c(-n3cnc4c(-c5cnc(Cl)[nH]5)cc(N5CCOCC5)cc43)ccnc12 [Example 292, 4-[7-(2-chloro-1H-imidazol-5-yl)-3-(8-fluoroquinolin-4-yl)benzimidazol-5-yl]morpholine] has an IC50 of 42 nM.

Cc1nc2c(-c3ccoc3)cc(N3CCOCC3)cc2n1-c1ccnc2c(Cl)cccc12 [Example 275, 4-[3-(8-chloroquinolin-4-yl)-7-(furan-3-yl)-2-methylbenzimidazol-5-yl]morpholine] showed an IC50 of 88 nM.

Work on Cc1nnc(-c2cc(N3CCOCC3)cc3c2nc(C2CCCO2)n3-c2ccnc3c(Cl)cccc23)[nH]1 (stereo not shown) [Example 16, 4-(1-(8-chloroquinolin-4-yl)-4-(5-methyl-4H-1,2,4-triazol-3-yl)-2-(tetrahydrofuran-2-yl)-1H-benzo[d]imidazol-6-yl)morpholine] yielded an IC50 of 53 nM.

Work on Cc1nnc(-c2cc(N3CCOCC3)cc3c2nc(C)n3-c2ccnc3ccccc23)[nH]1 [Example 19, 4-(2-methyl-4-(5-methyl-4H-1,2,4-triazol-3-yl)-1-(quinolin-4-yl)-1H-benzo[d]imidazol-6-yl)morpholine] yielded an IC50 of 110 nM.

CCCc1nc2c(-c3cnc(Cl)[nH]3)cc(N3CCOCC3)cc2n1-c1ccnc2c(F)ccc(F)c12 [Example 299, 4-[7-(2-chloro-1H-imidazol-5-yl)-3-(5,8-difluoroquinolin-4-yl)-2-propylbenzimidazol-5-yl]morpholine] showed an IC50 of 17 nM.

Clc1cccc2c(-n3c(C4CC4)nc4c(-c5ncco5)cc(N5CCOCC5)cc43)ccnc12 [Example 228, 4-[3-(8-chloroquinolin-4-yl)-2-cyclopropyl-7-(1,3-oxazol-2-yl)benzimidazol-5-yl]morpholine] gave an IC50 of 10 nM.

Compound Cc1nc2c(-c3nnc[nH]3)cc(N3CCOCC3)cc2n1-c1ccnc2c(Cl)ccc(F)c12 [Example 87, 4-[3-(8-chloro-5-fluoroquinolin-4-yl)-2-methyl-7-(4H-1,2,4-triazol-3-yl)benzimidazol-5-yl]morpholine] has an IC50 of 14 nM.

In the case of Clc1cccc2c(-n3c(-c4cn[nH]c4)nc4c(-c5nnc[nH]5)cc(N5CCOCC5)cc43)ccnc12 [Example 120, 4-[3-(8-chloroquinolin-4-yl)-2-(1H-pyrazol-4-yl)-7-(4H-1,2,4-triazol-3-yl)benzimidazol-5-yl]morpholine], the IC50 is reported as 27 nM.

For Cc1nnc(-c2cc(N3CCOCC3)cc3c2nc(C)n3-c2ccnc3c(F)cccc23)[nH]1 [Example 130, 4-[3-(8-fluoroquinolin-4-yl)-2-methyl-7-(5-methyl-4H-1,2,4-triazol-3-yl)benzimidazol-5-yl]morpholine], the IC50 was 87 nM.

Compound Cc1cc(-n2c(C)nc3c(-c4nc(C)n[nH]4)cc(N4CCOCC4)cc32)c2ccc(F)cc2n1 [Example 79, 4-[3-(7-fluoro-2-methylquinolin-4-yl)-2-methyl-7-(3-methyl-1H-1,2,4-triazol-5-yl)benzimidazol-5-yl]morpholine] has an IC50 of 110 nM.

Clc1ncc(-c2cc(N3CCOCC3)cc3c2nc(C2CC2)n3-c2ccnc3c(Cl)cccc23)[nH]1 [Example 290, 4-[7-(2-chloro-1H-imidazol-5-yl)-3-(8-chloroquinolin-4-yl)-2-cyclopropylbenzimidazol-5-yl]morpholine] showed an IC50 of 68 nM.
